The record followed here is patent publication US20120184016A1, “NOVEL PROTEIN AND GENE THAT CODES THEREFOR” (priority 2009, published 2012).

The subject of test [1] is recombinant β-galactoside-α2,6-sialyltransferase N1C0. Nature of the test: Sugar acceptor substrate specificity (sialic acid transfer to monosaccharides/disaccharides). As to conditions: for Transferred NeuAc / transfer of sialic acid to the sugar acceptor substrate (in words): purified enzyme; for Transferred NeuAc: substance used as sugar acceptor substrate; for transfer of sialic acid to the sugar acceptor substrate (in words): among 11 monosaccharides and disaccharides; for Relative activity: sialyltransferase activity represented by 100 for lactose. Format: biochemical, Photobacterium leiognathi strain JT-SHIZ-119. Further details: Relative activity: concentration or dose not given beside the values. As to the method:
Sialyltransferase activity was measured by a method described in J. Biochem., 120, 104-110 (1996) (which is hereby incorporated by reference in its entirety). Specifically, the enzyme reaction was performed using a reaction solution (30 μL) containing CMP-NeuAc (70 nmol, containing about 20000 cpm CMP-NeuAc in which NeuAc was labeled with ^14C; NeuAc represents N-acetylneuraminic acid) as a sugar donor substrate, lactose (1.25 μmol) as a sugar acceptor substrate, NaCl added to give a concentration of 0.5 M, and the enzyme prepared as described above. The enzyme reaction was carried out at 25° C. for about 10 to 180 minutes. After completion of the reaction, 1.97 mL of 5 mM phosphate buffer (pH 6.8) was added to the reaction solution, which was then applied to a Dowex 1×8 (PO4^3− form, 0.2×2 cm, manufactured by Bio-Rad Laboratories, Inc.) column. The radioactivity contained in the reaction product contained in the eluate (0 to 2 mL) from this column, that is, sialyllactose, was measured to calculate the enzyme activity. One enzyme unit (1 U) is defined as the amount of enzyme required to transfer one micromole of sialic acid per minute.
Sialic acid transfer reaction was performed using the purified enzyme, JT-SHIZ-119-derived recombinant β-galactoside-α2,6-sialyltransferase SHIZ119-N1C0, prepared in Example 3 and using various monosaccharides/disaccharides as sugar acceptor substrates. The reaction was performed by the method described in J. Biochem., 120, 104-110 (1996).
The monosaccharides used as sugar acceptor substrates were the following eight types: methyl-α-D-galactopyranoside (Gal-α-OMe), methyl-β-D-galactopyranoside (Gal-β-OMe), methyl-α-D-glucopyranoside (Glc-α-OMe), methyl-β-D-glucopyranoside (Glc-β-OMe), methyl-α-D-mannopyranoside (Man-α-OMe), methyl-β-D-mannopyranoside (Man-(3-OMe), N-acetylgalactosamine (GalNAc), and N-acetylglucosamine (GlcNAc). The disaccharides used were the following three types: lactose (Gal-β1,4-Glc), N-acetyllactosamine (Gal-β1,4-GlcNAc), and Gal-β1,3-GalNAc.
Note that the relative activity for each acceptor substrate is based on the sialyltransferase activity represented by 100 for lactose.

The subject of test [2] is JT-SHIZ-119-derived recombinant β-galactoside-α2,6-sialyltransferase N1C0 (neuraminidase activity). The experiment in a line: Substrate specificity of neuraminidase activity with PA-sugar chains, HPLC. Format: biochemical, Photobacterium leiognathi strain JT-SHIZ-119. As to conditions: 30° C. for 18 hours; FIGS. 3-5, 3-7, 3-8. As to the method:
The substrate specificity of neuraminidase, that is, the linkage mode of sialic acid to a sugar chain that is cleaved by the neuraminidase can be determined by, but not limited to, a method using a pyridylaminated sugar chain. More specifically, the enzyme reaction by neuraminidase is performed using PA sugar chains in which sialic acid is linked by α2,3-linkage, α2,6-linkage, or α2,8-linkage (for example, pyridylaminated sugar chains such as PA-Sugar Chain 029, PA-Sugar Chain 023, and PA-Sugar Chain 034 available from Takara Bio Inc.). The reaction product is analyzed by high performance liquid chromatography, and the amount of sialic acid that was cleaved is calculated from the retention time and peak area of the reaction product.
To reveal the specificity of the neuraminidase activity of the JT-SHIZ-119-derived recombinant β-galactoside-α2,6-sialyltransferase N1C0, reactions using a PA-sugar chain shown in Table 4, to which sialic acid is linked via α2,3-, α2,6-, or α2,8-linkage (PA-Sugar Chain 029, PA-Sugar Chain 023, or PA-Sugar Chain 034, manufactured by Takara Bio Inc.) as a substrate were performed.
To a purified enzyme solution of the JT-SHIZ-119-derived recombinant β-galactoside-α2,6-sialyltransferase N1C0 (equivalent to 0.6 U as sialyltransferase activity), 1.5 μL of a 10 pmol/μL PA-sugar chain was added, followed by reaction at 30° C. for 18 hours. After completion of the reaction, the reaction solution was treated at 100° C. for 2 minutes to inactivate the enzyme, followed by HPLC to analyze the reaction product. In the case of using PA-Sugar Chain 023 as the substrate, the pyridylaminated sugar chain was eluted and analyzed under the same conditions as those in Example 1. In the case of using PA-Sugar Chain 029 or PA-Sugar Chain 034 as the substrate, the elution was performed using eluent A (100 mM acetate-triethylamine, pH 5.0) and eluent B (100 mM acetate-triethylamine containing 0.5% n-butanol, pH 5.0) with a linear gradient of 0 to 100% eluent B (0 to 35 min), 100% eluent B (35 to 50 min), and then a linear gradient of 100% to 30% eluent B (51 to 75 min). The analysis was performed under the conditions of Example 1. FIGS. 3-2 to 3-8 show the results.

As to `CO[C@H]1O[C@H](CO)[C@@H](O)[C@H](O)[C@H]1O` [Methyl-α-D-glucopyranoside, methyl-α-D-glucopyranoside], the “Transferred NeuAc” value in test [1] was less than 0.01 nmol/min.
`CC(=O)N[C@H]1C(O)O[C@H](CO)[C@H](O)[C@@H]1O[C@@H]1O[C@H](CO)[C@H](O)[C@H](O)[C@H]1O` (stereo partly drawn) [Gal-β1,3-GalNAc]: in test [1], the “transfer of sialic acid to the sugar acceptor substrate (in words)” value (“transfer of sialic acid” for short) is recorded as “efficiently transferred”, the “Transferred NeuAc” value came to 1.68 nmol/min and the Relative activity turned out to be 58%.
As to `CO[C@@H]1O[C@H](CO)[C@@H](O)[C@H](O)[C@H]1O` [Methyl-β-D-glucopyranoside, methyl-β-D-glucopyranoside], in test [1], the “Transferred NeuAc” value was less than 0.01 nmol/min.
Turning to `CC(=O)N[C@H]1C(O)O[C@H](CO)[C@@H](O)[C@@H]1O` (some centres unmarked) [N-Acetylglucosamine, N-acetylglucosamine], the “Transferred NeuAc” value in test [1] is given as less than 0.01 nmol/min.
Consider `CO[C@H]1O[C@H](CO)[C@H](O)[C@H](O)[C@H]1O` [Methyl-α-D-galactopyranoside, methyl-α-D-galactopyranoside], for which, in test [1], the “Transferred NeuAc” value came out at 0.04 nmol/min and the Relative activity is 1%.
Regarding `OC[C@H]1O[C@@H](O[C@H]2[C@H](O)[C@@H](O)C(O)O[C@@H]2CO)[C@H](O)[C@@H](O)[C@H]1O` (some centres unmarked) [Lactose, lactose], in test [1], the “transfer of sialic acid” value is on record as “efficiently transferred”, the “Transferred NeuAc” value stood at 2.88 nmol/min and the Relative activity is recorded as 100%.
Take `CO[C@H]1O[C@H](CO)[C@@H](O)[C@H](O)[C@@H]1O` [Methyl-α-D-mannopyranoside, methyl-α-D-mannopyranoside]: the “Transferred NeuAc” value in test [1] is recorded as less than 0.01 nmol/min.
Turning to `CO[C@@H]1O[C@H](CO)[C@@H](O)[C@H](O)[C@@H]1O` [Methyl-β-D-mannopyranoside, methyl-β-D-mannopyranoside], in test [1], the “Transferred NeuAc” value was found to be 0.04 nmol/min and the Relative activity worked out at 1%.
For `CC(=O)NC1C(O)CC(OC2C(O)C(CO)OC(OC(C(O)CO)C(O)C(O)CNc3ccccn3)C2O)(C(=O)O)OC1C(O)C(O)CO` (centres unmarked) [PA-Sugar Chain 029, Neu5Acα2-3Galβ1-4Glc-PA], the “HPLC peak after reaction of the PA-sugar chain with the purified enzyme solution” value (from here on “HPLC peak after reaction”) in test [2] is on record as “corresponds to PA-Sugar Chain 029”.
For `CC(=O)N[C@H]1C(O)O[C@H](CO)[C@H](O)[C@@H]1O` (some centres unmarked) [N-Acetylgalactosamine, N-acetylgalactosamine], in test [1], the “transfer of sialic acid” value is on record as “efficiently transferred”, the “Transferred NeuAc” value was found to be 0.29 nmol/min and the Relative activity stood at 10%.
In the same order, the values of `CC(=O)N[C@H]1C(O)O[C@H](CO)[C@@H](O[C@@H]2O[C@H](CO)[C@H](O)[C@H](O)[C@H]2O)[C@@H]1O` (some centres unmarked) [N-Acetyllactosamine, N-acetyllactosamine] are “efficiently transferred”, 2.96 nmol/min and 103%.
Consider “N-Acetyllactosamine type, disialylated biantennary [PA-Sugar Chain 023]”, for which the “HPLC peak after reaction” value in test [2] was “corresponds to PA-Sugar Chain 001”.
As for `CO[C@@H]1O[C@H](CO)[C@H](O)[C@H](O)[C@H]1O` [Methyl-β-D-galactopyranoside, methyl-β-D-galactopyranoside], in test [1], the “transfer of sialic acid” value was “efficiently transferred”, the “Transferred NeuAc” value was 1.1 nmol/min and the Relative activity was 38%.
In the case of “GD1b-hexasaccharide [PA-Sugar Chain 034]”, in test [2], the “HPLC peak after reaction” value is “corresponds to PA-Sugar Chain 034”.
